Structures are written as SMILES.

Test system in one series: not given
Assay: not given
Conditions: not given
In the case of `CCOC(=O)c1csc(-c2cccc(C3=Nc4ccc(-n5cccc5)cc4NC(=O)C3)c2)n1` [Example 19, 2-[3-(4-oxo-7-Pyrrol-1-yl-4,5-dihydro-3H-benzo[b][1,4]diazepin-2-yl)-phenyl]-thiazole-4-carboxylic Acid Ethyl Ester], the melting point – broadly, the temperature, or range, at which the solid turns liquid – lay in the range of 198 to 201 °C.

In turn, `O=C1CC(c2cccc(-n3nncc3CO)c2)=Nc2cc(Cl)c(C(F)(F)F)cc2N1` [Example 63, 7-Chloro-4-[3-(5-hydroxymethyl-[1,2,3]triazol-1-yl)-phenyl]-8-trifluoromethyl-1,3-dihydro-benzo[b][1,4]diazepin-2-one] registered a melting point of 198 °C.

`CCOc1cc2c(cc1C(F)(F)F)NC(=O)CC(c1cccc(-n3ccnn3)c1)=N2` [Example 56, 7-Ethoxy-4-(3-[1,2,3]triazol-1-yl-phenyl)-8-trifluoromethyl-1,3-dihydro-benzo[b][1,4]diazepin-2-one] registered a melting point of 215 °C.

`CNCc1coc(-c2cccc(C3=Nc4ccc(-n5cccc5)cc4NC(=O)C3)c2)n1` [Example 79, 4-[3-(4-Methylaminomethyl-oxazol-2-yl)-phenyl]-8-pyrrol-1-yl-1,3-dihydro-benzo[b][1,4]diazepin-2-one]: the melting point was 182 to 183 °C.

In turn, `Cc1cc(-c2cccc(C3=Nc4cc(N5CCSCC5)c(C(F)(F)F)cc4NC(=O)C3)c2)on1` [Example 41, 4-[3-(3-Methyl-isoxazol-5-yl)-phenyl]-7-thiomorpholin-4-yl-8-trifluoromethyl-1,3-dihydro-benzo[b][1,4]diazepin-2-one] registered a melting point of 230 to 233 °C.

Compound `O=C1CC(c2cccc(-n3cccn3)c2)=Nc2cc(N3CCOCC3)c(C(F)(F)F)cc2N1` [Example 49, 7-Morpholin-4-yl-4-(3-pyrazol-1-yl-phenyl)-8-trifluoromethyl-1,3-dihydro-benzo[b][1,4]diazepin-2-one] gave a melting point of 166 °C.

The compound `O=C1CC(c2cccc(-c3csc(C(=O)NCCO)n3)c2)=Nc2ccc(-n3cccc3)cc2N1` [Example 32, 4-[3-(4-oxo-7-Pyrrol-1-yl-4,5-dihydro-3H-benzo[b][1,4]diazepin-2-yl)-phenyl]-thiazole-2-carboxylic Acid (2-Hydroxy-ethyl)-amide] came in with a melting point of 236 to 238 °C.

Consider `Cc1cc(-c2cccc(C3=Nc4cc(C)c(C(F)(F)F)cc4NC(=O)C3)c2)on1` [Example 70, 7-Methyl-4-[3-(3-methyl-isoxazol-5-yl)-phenyl]-8-trifluoromethyl-1,3-dihydro-benzo[b][1,4]diazepin-2-one], for which the melting point was 240 °C.

With `O=C1CC(c2cccc(-c3csc(CO)n3)c2)=Nc2ccc(-n3cccc3)cc2N1` [Example 33, 4-[3-(2-Hydroxymethyl-thiazol-4-yl)-phenyl]-8-pyrrol-1-yl-1,3-dihydro-benzo[b][1,4]diazepin-2-one], the melting point is 185 to 190 °C (dec.).

Consider `O=C1CC(c2cccc(-n3cnnc3)c2)=Nc2cc(N3CCOCC3)c(C(F)(F)F)cc2N1` [Example 50, 7-Morpholin-4-yl-4-(3-[1,2,4]triazol-4-yl-phenyl)-8-trifluoromethyl-1,3-dihydro-benzo[b][1,4]diazepin-2-one], for which the melting point lay within 233 to 236 °C.

`N#Cc1cc(C2=Nc3ccc(-n4cccc4)cc3NC(=O)C2)ccn1` [Example 82, 4-(4-oxo-7-Pyrrol-1-yl-4,5-dihydro-3H-benzo[b][1,4]diazepin-2-yl)-pyridine-2-carbonitrile]: the melting point is 243 to 244 °C.

For the compound `Cc1cc2c(cc1C(F)(F)F)NC(=O)CC(c1cccc(-n3nncc3CO)c1)=N2` [Example 68, 4-[3-(5-Hydroxymethyl-[1,2,3]triazol-1-yl)-phenyl]-7-methyl-8-trifluoromethyl-1,3-dihydro-benzo[b][1,4]diazepin-2-one], the melting point was determined as 215 °C.

As to `Cc1cc2c(cc1C(F)(F)F)NC(=O)CC(c1cccc(-n3ccnn3)c1)=N2` [Example 76, 7-Methyl-4-(3-[1,2,3]triazol-1-yl-phenyl)-8-trifluoromethyl-1,3-dihydro-benzo[b][1,4]diazepin-2-one], the melting point stood at 237 °C.

On to `O=C1CC(c2cccc(-c3nc(CN4CCOCC4)co3)c2)=Nc2ccc(-n3cccc3)cc2N1` [Example 81, 4-[3-(4-Morpholin-4-ylmethyl-oxazol-2-yl)-phenyl]-8-pyrrol-1-yl-1,3-dihydro-benzo[b][1,4]diazepin-2-one], for which the melting point is 166 to 167 °C.

With `Cc1cc(-c2cccc(C3=Nc4ccc(-n5cccc5)cc4NC(=O)C3)c2)on1` [Example 29, 4-[3-(3-Methyl-isoxazol-5-yl)-phenyl]-8-pyrrol-1-yl-1,3-dihydro-benzo[b][1,4]diazepin-2-one], the melting point lay in the range of 248 to 250 °C.

The compound `Cc1cc(-c2cccc(C3=Nc4cc(N5CCOCC5)c(C#N)cc4NC(=O)C3)c2)on1` [Example 61, 2-[3-(3-Methyl-isoxazol-5-yl)-phenyl]-8-morpholin-4-yl-4-oxo-4,5-dihydro-3H-benzo[b][1,4]diazepine-7-carbonitrile] yielded a melting point of 252 °C.

The compound `Cc1cc(-c2cccc(C3=Nc4cc(Cl)c(C(F)(F)F)cc4NC(=O)C3)c2)on1` [Example 65, 7-Chloro-4-[3-(3-methyl-isoxazol-5-yl)-phenyl]-8-trifluoromethyl-1,3-dihydro-benzo[b][1,4]diazepin-2-one] came in with a melting point of 252 °C.

Take `NC(=O)c1cccc(C2=Nc3ccc(-n4cccc4)cc3NC(=O)C2)c1` [Example 8, 3-(4-oxo-7-Pyrrol-1-yl-4,5-dihydro-3H-benzo[b][1,4]diazepin-2-yl)-benzamide]: the melting point is 238 to 239 °C (dec.).

For the compound `O=C1CC(c2cccc(I)c2)=Nc2ccc(-n3cccc3)cc2N1` [Example 7, 4-(3-Iodo-phenyl)-8-pyrrol-1-yl-1,3-dihydro-benzo[b][1,4]diazepin-2-one], the melting point was 215 to 217 °C (dec.).

Compound `NC(=O)c1nc(-c2cccc(C3=Nc4ccc(-n5cccc5)cc4NC(=O)C3)c2)cs1` [Example 30, 4-[3-(4-oxo-7-Pyrrol-1-yl-4,5-dihydro-3H-benzo[b][1,4]diazepin-2-yl)-phenyl]-thiazole-2-carboxylic Acid Amide] showed a melting point of 267 to 269 °C.

Compound `O=C1CC(c2cccc(-n3ncnc3CO)c2)=Nc2cc(Cl)c(C(F)(F)F)cc2N1` [Example 64, 7-Chloro-4-[3-(5-hydroxymethyl-[1,2,4]triazol-1-yl)-phenyl]-8-trifluoromethyl-1,3-dihydro-benzo[b][1,4]diazepin-2-one] came in with a melting point of 212 °C.

The compound `COc1cc2c(cc1C(F)(F)F)NC(=O)CC(c1ccnc(C#N)c1)=N2` [Example 44, 4-(8-Methoxy-4-oxo-7-trifluoromethyl-4,5-dihydro-3H-benzo[b][1,4]diazepin-2-yl)-pyridine-2-carbonitrile] came in with a melting point of 227 °C.

In turn, `COc1cc2c(cc1C(F)(F)F)NC(=O)CC(c1cccc(-c3cc(C)no3)c1)=N2` [Example 45, 7-Methoxy-4-[3-(3-methyl-isoxazol-5-yl)-phenyl]-8-trifluoromethyl-1,3-dihydro-benzo[b][1,4]diazepin-2-one] returned a melting point of 225 °C.

A further series deals with T1, recombinant rat mGluR2 expressed in CHO cells (Rattus norvegicus, UniProt P31421).
T1 construct: expressed in transfected cells; host or cells: CHO cells, stably transfected with pcD1mGR2 (pcDNA I-amp), G-418 selected; membranes used
T1 sequence (P31421 19-872): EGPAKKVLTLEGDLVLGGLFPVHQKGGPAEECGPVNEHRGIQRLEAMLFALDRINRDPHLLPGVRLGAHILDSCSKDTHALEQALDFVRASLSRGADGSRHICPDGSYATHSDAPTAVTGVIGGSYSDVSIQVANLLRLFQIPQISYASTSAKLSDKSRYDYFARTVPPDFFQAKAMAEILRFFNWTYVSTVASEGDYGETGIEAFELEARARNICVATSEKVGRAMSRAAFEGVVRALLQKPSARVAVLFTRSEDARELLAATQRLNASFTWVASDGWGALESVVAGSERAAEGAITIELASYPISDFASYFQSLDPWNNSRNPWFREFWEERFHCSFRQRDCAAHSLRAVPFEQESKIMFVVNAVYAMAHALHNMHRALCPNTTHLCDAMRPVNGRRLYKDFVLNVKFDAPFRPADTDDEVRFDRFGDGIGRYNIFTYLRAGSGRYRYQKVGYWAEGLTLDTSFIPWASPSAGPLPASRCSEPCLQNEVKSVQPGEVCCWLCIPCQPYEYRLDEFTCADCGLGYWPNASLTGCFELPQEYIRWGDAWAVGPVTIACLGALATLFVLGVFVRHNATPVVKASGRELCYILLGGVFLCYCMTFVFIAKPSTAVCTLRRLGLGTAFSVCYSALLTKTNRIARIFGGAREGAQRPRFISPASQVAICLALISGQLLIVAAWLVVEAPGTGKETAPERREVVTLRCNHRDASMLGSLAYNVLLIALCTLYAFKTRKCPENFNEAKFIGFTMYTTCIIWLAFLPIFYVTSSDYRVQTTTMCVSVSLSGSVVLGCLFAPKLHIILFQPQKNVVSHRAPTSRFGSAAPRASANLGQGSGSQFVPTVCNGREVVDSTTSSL
In words: [3H]-LY354740 binding on mGlu2 transfected CHO cell membranes (displacement binding assay). To be noted: displacement of 10 nM [3H]-LY354740, membranes of CHO cells expressing rat mGlu2, room temperature, 1 hour; Ki calculated from IC50 with the Cheng and Prusoff equation. From the text:
In Table I below some specific Ki values of preferred compounds of the invention are presented. These values were obtained by indirect measurement of the affinity of the compounds for the recombinant rat mGluR2 expressed in CHO cells using a displacement binding assay with 3H-LY354740.
[^3H]-LY354740 Binding on mGlu2 Transfected CHO Cell Membranes
Transfection and Cell Culture
cDNA encoding the rat mGlu2 receptor protein in pBluescript II was obtained from Prof. S. Nakanishi (Kyoto, Japan), and subcloned into the eukaryotic expression vector pcDNA I-amp from Invitrogen (NV Leek, The Netherlands). This vector construct (pcD1mGR2) was co-transfected with a psvNeo plasmid encoding the gene for neomycin resistance, into CHO cells by a modified calcium phosphate method described by Chen & Okayama (1988). The cells were maintained in Dulbecco's Modified Eagle medium with reduced L-glutamine (2 mM final concentration) and 10% dialysed foetal calf serum from Gibco BRL (Basel, Switzerland). Selection was made in the presence of G-418 (1000 ug/mL final). Clones were identified by reverse transcription of 5 μg total RNA, followed by PCR using mGlu2 receptor specific primers 5′-[…]-3′ and 5′-[…]-3′ in 60 mM Tris HCl (pH 10), 15 mM (NH4)2SO4, 2 mM MgCl2, 25 units/mL Taq Polymerase with 30 cycles annealing at 60° C. for 1 min., extention at 72° C. for 30 s, and 1 min. 95° C. denaturation.
Cells, cultured as above, were harvested and washed three times with cold PBS and frozen at −80° C. The pellet was resuspended in cold 20 mM HEPES-NaOH buffer containing 10 mM EDTA (pH 7.4), and homogenised with a polytron (Kinematica, AG, Littau, Switzerland) for 10 s at 10000 rpm. After centrifugation for 30 min. at 4° C., the pellet was washed once with the same buffer, and once with cold 20 mM HEPES-NaOH buffer containing 0.1 mM EDTA, (pH 7.4). Protein content was measured using the Pierce method (Socochim, Lausanne, Switzerland) using bovine serum albumin as standard.
After thawing, the membranes were resuspended in cold 50 mM Tris-HCl buffer containing 2 mM MgCl2 and 2 mM CaCl2, (pH 7) (binding buffer). The final concentration of the membranes in the assays was 25 μg protein/mL. Inhibition experiments were performed with membranes incubated with 10 nM [^3H]-LY354740 at room temperature, for 1 hour, in presence of various concentrations of the compound to be tested. Following the incubations, membranes were filtered onto Whatmann GF/C glass fiber filters and washed 5 times with cold binding buffer. Non specific binding was measured in the presence of 10 μM DCG IV. After transfer of the filters into plastic vials containing 10 mL of Ultima-gold scintillation fluid (Packard, Züirich, Switzerland), the radioactivity was measured by liquid scintillation in a Tri-Carb 2500 TR counter (Packard, Züirich, Switzerland).
The inhibition curves were fitted with a four parameter logistic equation giving IC50 values, and Hill coefficients and the Ki values were calculated using the Cheng and Prusoff equation (Cheng, Y. and Prusoff, W. H., Biochem. Pharmacol. 1973, 22, 3099-3108). A small Ki value expresses high affinity of the compound towards the receptor.
`COc1cc2c(cc1-n1cccc1)NC(=O)CC(c1cccc(C#N)c1)=N2` [Example 17, 3-(8-Methoxy-4-oxo-7-pyrrol-1-yl-4,5-dihydro-3H-benzo[b][1,4]diazepin-2-yl)-benzonitrile]: the Ki (usually a measure of affinity in units of concentration, obtained from inhibition or displacement) is 44 nM.

As for `N#Cc1cccc(C2=Nc3ccc(-n4ccc(-c5ccccc5)c4)cc3NC(=O)C2)c1` [Example 12, 3-[4-oxo-7-(3-Phenyl-pyrrol-1-yl)-4,5-dihydro-3H-benzo[b][1,4]diazepin-2-yl]-benzonitrile], the Ki was 75 nM.

(Values after patent publication US6548495B2, “Dihydro-benzo [B] [1,4] diazepin-2-one derivatives” (Hoffmann-La Roche Inc., priority 2002, dated 2003).)
